In one data set the target is factor Xa (Bos taurus, UniProt P00743). The data set can be described thus: inhibition of factor Xa, dissociation constant Ki. The data set is classed as biochemical. As to conditions: Table 1. As to the method:
(§1) The biological activity of the compounds of the present invention was determined in vitro as well as in vivo.

The next data set deals with T1, trypsin (Bos taurus, UniProt P00760).
T1 sequence (P00760 24-246): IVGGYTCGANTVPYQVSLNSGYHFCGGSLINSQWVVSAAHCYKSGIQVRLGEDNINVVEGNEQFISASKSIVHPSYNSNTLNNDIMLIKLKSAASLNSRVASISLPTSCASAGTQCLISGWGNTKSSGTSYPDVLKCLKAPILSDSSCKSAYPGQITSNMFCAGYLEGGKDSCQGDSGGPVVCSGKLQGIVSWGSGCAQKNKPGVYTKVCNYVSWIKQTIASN
The data set can be described thus: inhibition of trypsin, dissociation constant Ki. The data set is classed as biochemical. Also on record: thrombin and the related enzymes trypsin, plasmin, factor Xa, factor XIIa. As to the method:
as §1

A further data set in a line: in vivo. To be noted: plasma, rat, intraduodenal 100 mg/kg.

The text below walks through data of patent US5607937A, “Piperazides of substituted phenylalanine derivatives as thrombin inhibitors” (priority 1993, dated 1997).

factor Xa, sequence (P00743 234-492 limits assumed): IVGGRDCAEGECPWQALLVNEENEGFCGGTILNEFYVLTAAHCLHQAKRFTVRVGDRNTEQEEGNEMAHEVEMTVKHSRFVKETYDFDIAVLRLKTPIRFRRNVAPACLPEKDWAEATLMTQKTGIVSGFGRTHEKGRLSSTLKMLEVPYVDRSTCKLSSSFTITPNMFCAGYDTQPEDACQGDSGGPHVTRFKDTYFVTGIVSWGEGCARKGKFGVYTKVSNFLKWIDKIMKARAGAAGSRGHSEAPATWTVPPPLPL
factor Xa, sequence (P00743 41-180 partner limits assumed): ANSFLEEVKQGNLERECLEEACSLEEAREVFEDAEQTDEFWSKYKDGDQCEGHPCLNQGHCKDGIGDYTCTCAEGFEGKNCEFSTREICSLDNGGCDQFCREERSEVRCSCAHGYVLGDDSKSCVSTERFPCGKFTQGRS

As for `CC(=O)N1CCN(C(=O)[C@H](Cc2cccc(C(=N)N)c2)NS(=O)(=O)c2ccc3ccccc3c2)CC1.Cl` [Compound 2, Nα-(2-naphthylsulfonyl)-(L)-3-amidinophenylalanine-4-acetylpiperazide hydrochloride], the results for the Ki at factor Xa and at trypsin were 35 µM and 0.044 µM, respectively. In addition, in “in vivo” (30 min), the concentration at 0.5 h is 21700 ng/mL. In the data set “in vivo” (60 min), this compound yielded a concentration at 1 h of 15200 ng/mL. The concentration at 2 h in “in vivo” (120 min) amounted to 4280 ng/mL. The compound also yielded a concentration at 3 h in “in vivo” (180 min) of 2600 ng/mL. The compound further gave a concentration at 4 h in the data set “in vivo” (240 min) of 2180 ng/mL. In the data set “in vivo” (300 min), this compound displayed a concentration at 5 h of 2200 ng/mL. For the same compound, the concentration at 6 h in the data set “in vivo” (360 min) stood at 2850 ng/mL.

One may read the Ki as the equilibrium dissociation constant of an inhibitor or competing ligand from its target. Low values mean tighter binding, high ones weaker binding.
